Experimental data published in ChEMBL document CHEMBL4152351, “Isoxazolo[3,4-d]pyridazinones positively modulate the metabotropic glutamate subtypes 2 and 4” (Bioorg Med Chem, 2018).

Legend:
[1] = target: Metabotropic glutamate receptor 4 (Homo sapiens) (UniProt Q14833); assay: Antagonist activity at Gi-coupled mGluR4 (unknown origin) expressed in CHO cells assessed as decrease in glutamate-induced inhibition of forskolin-stimulated cAMP accumulation after 1 hr by glosensor based luciferase reporter gene assay relative to control; assay type: functional, cell-based; set-up: concentration or dose not given beside the values; details: concentration not given here
[2] = target: Glutamate [NMDA] receptor; assay: Displacement of [3H]MK-801 from NMDA receptor (unknown origin) after 3 hrs by liquid scintillation counting method; assay type: protein-complex assay, Homo sapiens
[3] = target: Metabotropic glutamate receptor 5 (Homo sapiens, UniProt P41594); assay: Displacement of MPEP from mGluR5 (unknown origin) after 3 hrs by liquid scintillation counting method
Homo sapiens = species on record: Homo sapiens; assay: Displacement of muscimol from GABA-A receptor (unknown origin) after 90 mins by liquid scintillation counting method; set-up: concentration or dose not given beside the values
[4] = target: Metabotropic glutamate receptor 2 (Homo sapiens) (UniProt Q14416); assay: Antagonist activity at Gi-coupled mGluR2 (unknown origin) expressed in CHO cells assessed as decrease in glutamate-induced inhibition of forskolin-stimulated cAMP accumulation after 1 hr by glosensor based luciferase reporter gene assay relative to control; assay type: functional, cell-based; set-up: concentration or dose not given beside the values; details: concentration not given here
Sequence of Metabotropic glutamate receptor 2 (Homo sapiens) (Q14416 19-872 limits assumed): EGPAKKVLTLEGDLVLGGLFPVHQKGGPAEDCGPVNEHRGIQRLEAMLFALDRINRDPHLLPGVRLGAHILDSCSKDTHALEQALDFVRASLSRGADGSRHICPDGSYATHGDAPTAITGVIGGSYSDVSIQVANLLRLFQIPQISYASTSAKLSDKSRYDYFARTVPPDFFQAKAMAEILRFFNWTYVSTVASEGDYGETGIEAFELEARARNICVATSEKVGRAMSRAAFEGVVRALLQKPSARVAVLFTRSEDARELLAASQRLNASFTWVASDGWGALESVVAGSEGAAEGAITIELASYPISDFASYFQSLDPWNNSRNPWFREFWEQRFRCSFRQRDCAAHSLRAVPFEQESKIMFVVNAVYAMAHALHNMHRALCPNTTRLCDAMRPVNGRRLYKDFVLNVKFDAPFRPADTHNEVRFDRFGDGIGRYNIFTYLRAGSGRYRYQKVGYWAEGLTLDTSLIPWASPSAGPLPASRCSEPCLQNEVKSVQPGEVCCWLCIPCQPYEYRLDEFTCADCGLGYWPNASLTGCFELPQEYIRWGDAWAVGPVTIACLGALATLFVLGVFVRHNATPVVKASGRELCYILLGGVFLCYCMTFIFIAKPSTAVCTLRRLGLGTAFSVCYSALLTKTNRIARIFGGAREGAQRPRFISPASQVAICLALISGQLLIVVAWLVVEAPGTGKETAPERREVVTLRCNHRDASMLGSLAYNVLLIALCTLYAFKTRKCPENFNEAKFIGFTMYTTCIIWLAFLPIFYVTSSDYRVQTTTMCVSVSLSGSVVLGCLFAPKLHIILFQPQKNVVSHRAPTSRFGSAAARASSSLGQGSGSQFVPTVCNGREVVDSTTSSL

Sequence of Metabotropic glutamate receptor 5 (P41594 whole entry): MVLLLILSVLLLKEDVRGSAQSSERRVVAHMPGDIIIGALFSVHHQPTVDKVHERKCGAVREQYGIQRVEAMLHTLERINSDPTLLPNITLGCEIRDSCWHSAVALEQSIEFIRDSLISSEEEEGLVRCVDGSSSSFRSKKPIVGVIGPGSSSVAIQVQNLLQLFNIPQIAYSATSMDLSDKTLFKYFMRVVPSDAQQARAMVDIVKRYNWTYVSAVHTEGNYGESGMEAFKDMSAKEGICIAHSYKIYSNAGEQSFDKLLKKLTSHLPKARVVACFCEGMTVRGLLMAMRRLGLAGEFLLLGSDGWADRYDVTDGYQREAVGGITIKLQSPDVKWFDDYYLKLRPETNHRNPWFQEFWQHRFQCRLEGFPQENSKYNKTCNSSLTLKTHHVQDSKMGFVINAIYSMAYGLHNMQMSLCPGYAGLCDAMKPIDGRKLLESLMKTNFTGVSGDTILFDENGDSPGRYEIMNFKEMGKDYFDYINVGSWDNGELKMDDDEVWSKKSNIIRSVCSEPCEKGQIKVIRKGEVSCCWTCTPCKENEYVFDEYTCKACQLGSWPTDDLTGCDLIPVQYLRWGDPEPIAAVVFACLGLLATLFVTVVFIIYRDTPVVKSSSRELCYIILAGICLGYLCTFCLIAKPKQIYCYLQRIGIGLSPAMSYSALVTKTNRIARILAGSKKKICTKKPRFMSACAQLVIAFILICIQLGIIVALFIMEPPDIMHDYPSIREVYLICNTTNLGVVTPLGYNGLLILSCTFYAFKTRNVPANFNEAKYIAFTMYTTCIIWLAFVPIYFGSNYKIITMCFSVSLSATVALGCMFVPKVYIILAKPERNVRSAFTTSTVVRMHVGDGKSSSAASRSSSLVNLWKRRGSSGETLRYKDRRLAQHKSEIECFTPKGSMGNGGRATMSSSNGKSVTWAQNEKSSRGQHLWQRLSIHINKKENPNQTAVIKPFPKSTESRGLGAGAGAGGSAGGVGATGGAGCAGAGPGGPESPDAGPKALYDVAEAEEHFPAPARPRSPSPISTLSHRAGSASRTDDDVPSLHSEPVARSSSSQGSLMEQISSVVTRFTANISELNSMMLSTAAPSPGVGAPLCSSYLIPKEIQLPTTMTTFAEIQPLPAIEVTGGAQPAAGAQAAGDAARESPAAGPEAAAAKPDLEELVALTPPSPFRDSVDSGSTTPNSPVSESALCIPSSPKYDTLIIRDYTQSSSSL
Sequence of Metabotropic glutamate receptor 4 (Homo sapiens) (Q14833 whole entry): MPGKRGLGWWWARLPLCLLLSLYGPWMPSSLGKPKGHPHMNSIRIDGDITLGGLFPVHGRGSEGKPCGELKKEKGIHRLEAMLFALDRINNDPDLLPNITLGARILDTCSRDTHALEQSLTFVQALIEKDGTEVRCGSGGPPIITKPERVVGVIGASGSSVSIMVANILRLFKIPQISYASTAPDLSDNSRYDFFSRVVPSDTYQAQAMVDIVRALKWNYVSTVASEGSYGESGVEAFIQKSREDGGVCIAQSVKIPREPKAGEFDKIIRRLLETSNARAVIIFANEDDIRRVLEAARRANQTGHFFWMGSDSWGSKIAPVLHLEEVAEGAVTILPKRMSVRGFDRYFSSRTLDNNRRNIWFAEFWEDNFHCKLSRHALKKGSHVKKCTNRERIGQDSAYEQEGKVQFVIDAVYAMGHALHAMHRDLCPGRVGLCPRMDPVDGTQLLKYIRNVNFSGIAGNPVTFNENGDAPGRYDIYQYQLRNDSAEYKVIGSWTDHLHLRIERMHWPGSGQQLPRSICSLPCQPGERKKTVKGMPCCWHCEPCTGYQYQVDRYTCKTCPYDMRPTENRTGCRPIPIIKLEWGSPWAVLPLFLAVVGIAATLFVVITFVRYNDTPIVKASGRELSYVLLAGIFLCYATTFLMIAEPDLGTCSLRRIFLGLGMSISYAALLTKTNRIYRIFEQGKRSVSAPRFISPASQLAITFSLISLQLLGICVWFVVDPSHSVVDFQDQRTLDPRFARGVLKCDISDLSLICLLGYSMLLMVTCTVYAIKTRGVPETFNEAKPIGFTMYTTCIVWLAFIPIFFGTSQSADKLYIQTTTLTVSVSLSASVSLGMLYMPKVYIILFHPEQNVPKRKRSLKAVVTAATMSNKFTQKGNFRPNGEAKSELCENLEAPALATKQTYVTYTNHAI

Cc1nn(-c2ccc(F)cc2)c(=O)c2nocc12
inhibition [1]: 3%
Ki [2]: > 10 µM
Ki [3]: > 10 µM
inhibition (Homo sapiens): -6%
inhibition [4]: 23%

Cc1nn(-c2ccc([N+](=O)[O-])cc2)c(=O)c2nocc12
inhibition [1]: -3%
Ki [2]: > 10 µM
Ki [3]: > 10 µM
inhibition (Homo sapiens): -4.7%
inhibition [4]: 5%

Cc1nn(-c2cccc([N+](=O)[O-])c2)c(=O)c2nocc12
inhibition [1]: -10%
Ki [2]: > 10 µM
Ki [3]: > 10 µM
inhibition [4]: 48%

Cc1nn(-c2ccc(F)cc2F)c(=O)c2nocc12
inhibition [1]: -7%
Ki [2]: > 10 µM
Ki [3]: > 10 µM
inhibition (Homo sapiens): -10%

Cc1nn(-c2cc(C(F)(F)F)cc(C(F)(F)F)c2)c(=O)c2nocc12
inhibition [1]: 11%
Ki [2]: > 10 µM
inhibition (Homo sapiens): -7.2%
inhibition [4]: 0%

CN1CC(=O)N=C1NC(=O)Nc1cccc(Cl)c1 [FENOBAM ANHYDROUS]
Ki [3]: 0.033 µM

Cc1nn(-c2cc(Cl)cc(Cl)c2)c(=O)c2nocc12
inhibition [1]: -6%
Ki [2]: > 10 µM
Ki [3]: 3.08 µM
inhibition (Homo sapiens): -7.8%
inhibition [4]: 11%

Cc1ccc(-n2nc(C)c3conc3c2=O)cc1
inhibition [1]: -9%
Ki [2]: > 10 µM
Ki [3]: 1.88 µM

Cc1nn(-c2ccccc2)c(=O)c2nocc12
inhibition [1]: -5%
Ki [2]: > 10 µM
Ki [3]: > 10 µM
inhibition (Homo sapiens): -6%

COc1ccc(-n2nc(C)c3conc3c2=O)cc1
inhibition [1]: 9%
Ki [2]: > 10 µM
Ki [3]: > 10 µM
